Measurements from patent US9062043B2, “Fused tricyclic compounds as serine-threonine protein kinase and PARP modulators” (SENHWA BIOSCIENCES, INC., priority 2006, dated 2015).

Tests used:
[1] = tested on: MiaPaca human pancreatic carcinoma cells; test: Cell proliferation assay, Alamar Blue, MiaPaca; format: cell-based; settings: MIA PaCa-2, Table 18
Experimental: (§1) A representative cell-proliferation assay protocol using Alamar Blue dye (stored at 4° C., use 20 ul per well) is described hereafter.
(§2) c. Plate 4,000-5,000 cells per well in 100 μl of medium and seed into a 96-well plate according to the following plate layout. Add cell culture medium only to wells B10 to B12. Wells B1 to B9 have cells but no compound added.
(§3) d. Add 100 μl of 2× drug dilution to each well in a concentration shown in the plate layout above. At the same time, add 100 μl of media into the control wells (wells B10 to B12). Total volume is 200 μl/well.
(§4) e. Incubate four (4) days at 37° C., 5% CO2 in a humidified incubator.
(§5) f. Add 20 μl Alamar Blue reagent to each well.
(§6) g. Incubate for four (4) hours at 37° C., 5% CO2 in a humidified incubator.
(§7) h. Record fluorescence at an excitation wavelength of 544 nm and emission wavelength of 590 nm using a microplate reader.
(§8) In the assays, cells are cultured with a test compound for approximately four days, the dye then is added to the cells and fluorescence of […] dye is detected after approximately four hours. Different types of cells can be utilized in the assays (e.g., HCT-116 human colorectal carcinoma cells, PC-3 human prostatic cancer cells and MiaPaca human pancreatic carcinoma cells). Anti-proliferative effects of representative compounds are provided hereafter.

Jurkat = test: Cell proliferation assay, Alamar Blue, Jurkat; format: cell-based; settings: Homo sapiens, Table 18;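 further: cells exposed to compound for about 4 days at 37 °C, then Alamar Blue added and fluorescence read after about 4 h, controls given medium without drug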
[2] = tested on: HCT-116 human colorectal carcinoma cells; test: Cell proliferation assay, Alamar Blue, HCT-116; format: cell-based; settings: HCT-116, Table 18;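 further: cells exposed to compound for about 4 days, then Alamar Blue added and fluorescence read after about 4 h, medium-only wells as control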
HT29 = test: Cell proliferation assay, Alamar Blue, HT29; format: cell-based; settings: Homo sapiens, HT-29; Table 19b
Experimental: as §2, §3, §4, §5, §6, §7, §8

BxPC3 = test: Cell proliferation assay, Alamar Blue, BxPC3; format: cell-based; settings: Homo sapiens, BXPC-3; Table 19b
Experimental: as §2, §3, §4, §5, §6, §7, §8

PanC1 = test: Cell proliferation assay, Alamar Blue, PanC1; format: cell-based; settings: Homo sapiens, PANC-1; Table 19b; read-out: IC50 PanC1
Experimental: as §1, §2, §3, §4, §5, §6, §7, §8

[3] = Pharmacokinetics in ICR mice after IV and PO dose; format: in vivo

Row | Structure (SMILES) | IC50 (BxPC3) [µM] | IC50 (PanC1) [µM] | other results
1 | CC1CCCCN1CCCNc1ncc2c(n1)c(Nc1ccc(F)c(Cl)c1)nc1cc(C(=O)O)ccc12 (centres unmarked) [drawing 1087] |  |  | IC50 [1]: 3.16 µM; IC50 (Jurkat): 2.86 µM
2 | CCCNc1ncc2c(n1)c(NC1CC1)nc1cc(C(=O)O)ccc12 [drawing 1103] |  |  | IC50 [2]: > 10 µM; IC50 [1]: 4.65 µM; IC50 (Jurkat): 7.49 µM
3 | O=C(O)c1ccc2c(c1)nc(NCCc1ccccc1)c1ccncc12 [drawing 1206] |  |  | IC50 (HT29): 46.9 µM
4 | O=C(O)c1ccc2c(c1)nc(NCCc1cccc(Cl)c1)c1ccncc12 [drawing 1219] | 24.3 | 28.1 | IC50 (HT29): 34 µM
5 | O=C(O)c1ccc2c(c1)nc(NCCc1cccc(F)c1)c1ccncc12 [drawing 1220] | 3.29 | 28.2 | IC50 (HT29): 31.3 µM
6 | O=C(O)c1ccc2c(c1)nc(NCCCc1ccccc1)c1ccncc12 [drawing 1221] | 23.4 | 34.4 | IC50 (HT29): 16.4 µM
7 | C#Cc1cccc(Nc2nc3cc(C(=O)O)ccc3c3cnc(NCC4CCCO4)nc23)c1 (centres unmarked) [drawing 1256] | 1.2 | 6.66 | 
8 | C#Cc1cccc(Nc2nc3cc(C(=O)O)ccc3c3cnc(NCC4CC4)nc23)c1 [drawing 1257] | 0.82 | 1.3 | 
9 | COC(=O)c1ccc2c(c1)nc(NC1CC1)c1nc(SCc3ccccc3Cl)ncc12 [drawing 1262] | 2.12 | 3.48 | 
10 | O=C(O)c1ccc2c(c1)nc(NC1CC1)c1nc(NCc3ccccc3)ncc12 [drawing 1268] | 10.9 | 25.8 | 
11 | O=C(O)c1ccc2c(c1)nc(NCc1cccnc1)c1nc(NC3CC3)ncc12 [drawing 1276] | > 50 | > 50 | 
12 | O=C(O)c1ccc2c(c1)nc(N1CCOCC1)c1nc(NC3CC3)ncc12 [drawing 1278] | > 50 | > 50 | 
13 | CC1CCCCN1CCCNc1ncc2c(n1)c(Nc1ccc(F)c(Cl)c1)nc1cc(C(=O)O)ccc12 (centres unmarked) [drawing 1280] | 3.34 | 10.5 | 
14 | Cc1cc(Nc2ncc3c(n2)c(Nc2ccc(F)c(Cl)c2)nc2cc(C(=O)O)ccc23)[nH]n1 [drawing 1286] | > 50 | > 50 | 
15 | COC(=O)c1ccc2c(c1)nc(NC1CC1)c1nc(SC)ncc12 [drawing 1292] | 7.39 | > 50 | 
16 | CN(C)CCNc1nc2cc(C(=O)O)ccc2c2cnc(NC3CC3)nc12 [drawing 1293] | 13 | > 50 | 
17 | C#Cc1cccc(Nc2nc3cc(C(=O)O)ccc3c3cncnc23)c1 [drawing 1347] |  |  | Kel ([3]; PO, 24.5 mg/kg): 0.0594 h⁻¹; AUC(0-inf) ([3]; mouse, plasma, IV, 3.4 mg/kg): 4900 ng·h/mL; AUC(0-t) ([3]; mouse, plasma, IV, 3.4 mg/kg): 4810 ng·h/mL; Cmax ([3]; mouse, plasma, IV, 3.4 mg/kg): 4740 ng/mL; Vd ([3]; mouse, plasma, IV, 3.4 mg/kg): 4.9 L/kg; AUC(0-inf) ([3]; mouse, plasma, PO, 24.5 mg/kg): 10900 ng·h/mL; AUC(0-t) ([3]; mouse, plasma, PO, 24.5 mg/kg): 9120 ng·h/mL; Cmax ([3]; mouse, plasma, PO, 24.5 mg/kg): 1600 ng/mL; Tmax ([3]; mouse, plasma, PO, 24.5 mg/kg): 30 min

Now from value to compound, other results behind:

Row | IC50 (BxPC3) [µM] | IC50 (PanC1) [µM] | Structure (SMILES) | other results
18 | > 50 | > 50 | O=C(O)c1ccc2c(c1)nc(NCc1ccccc1)c1ccncc12 [drawing 1218] | 
19 | 45.3 | > 50 | O=C(O)c1ccc2c(c1)nc(NC1CC1)c1nc(SCc3ccccc3Cl)ncc12 [drawing 1265] | 
20 | 48.9 | > 50 | CCOc1ncc2c(n1)c(NC1CC1)nc1cc(C(=O)O)ccc12 [drawing 1266] | 
21 | 2.59 | 2.6 | O=C(O)c1ccc2c(c1)nc(NC1CC1)c1nc(NC3CC3)ncc12 [drawing 1267] | 
22 | 3.92 | 4.02 | O=C(O)c1ccc2c(c1)nc(NC1CC1)c1nc(Nc3ccccc3)ncc12 [drawing 1269] | 
23 | 22.3 | 19.1 | O=C(O)c1ccc2c(c1)nc(NCc1ccccc1)c1nc(NC3CC3)ncc12 [drawing 1277] | 
24 | 49 | > 50 | O=C(O)c1ccc2c(c1)nc(NC1CC1)c1ccncc12 [drawing 1290] | 
25 | 43.8 | > 50 | Nc1ncc2c(n1)c(NC1CC1)nc1cc(C(=O)O)ccc12 [drawing 1295] | 
26 | 5.58 | 1.33 | CCCNc1ncc2c(n1)c(NC1CC1)nc1cc(C(=O)O)ccc12 [drawing 1296] | 
